Experimental data as given in patent US20220389008A1, “4-QUINOLINONE ANTIBACTERIAL COMPOUNDS” (Janssen Sciences Ireland Unlimited Company, priority 2019, published 2022).
Read-outs that look alike come from different tables or passages of the source.

Experiments:
[1] = tested on: Mycobacterium tuberculosis (strain H37Ra), cyt bd; settings: Mtb H37Ra; for (i) % OCR after cyt bd inhibitor: test compound 10 μM added after Compound X 0.9 μM; for (ii) % OCR after cccp: test compound 10 μM after Compound X 0.9 μM, then CCCP 1 μM
[2] = tested on: Mitochondrial toxicity (Glu/Gal); test: Mitochondrial toxicity (Glu/Gal) assay; assay type: cell-based; design: key to Score: “negative” means that in the test, it was found to have low mitotoxicity (and hence no mitotoxicity alerts); “positive” means that there were some mitotoxicity alerts; “inconclusive” means that no accurate conclusion could be drawn; settings: for Score: mitotoxicity score; for Δ IC50,glu/IC50,gal: ratio glu/gal
Source text: The compounds of the invention/examples may have advantages associated with in vitro potency, kill kinetics (i.e. bactericidal effect) in vitro, PK properties, food effect, safety/toxicity (including liver toxicity, coagulation, 5-LO oxygenase), metabolic stability, Ames II negativity, MNT negativity, aqueous based solubility (and ability to formulate) and/or cardiovascular effect e.g. on animals (e.g. anesthetized guinea pig). The data below that was generated/calculated may be obtained using standard methods/assays, for instance that are available in the literature or which may be performed by a supplier (e.g. Microsomal Stability Assay—Cyprotex, Mitochondrial toxicity (Glu/Gal) assay—Cyprotex, as well as literature CYP cocktail inhibition assays).

[3] = tested on: Mycobacterium tuberculosis strain H37Rv ΔctaE-ΔqcrCAB; test: microbe, parasite or virus in culture; assay type: cell-based; settings: 240 h
[4] = galactose medium, read-out: IC50, gal
[5] = glucose medium, read-out: IC50, glu

| Compound | (i) % OCR after cyt bd inhibitor [1] | (ii) % OCR after cccp [1] | IC50 [2, 4] [µM] | IC50 [2, 5] [µM] | Score [2] | Δ IC50,glu/IC50,gal [2] | IC50 [3] [µM] |
| --- | --- | --- | --- | --- | --- | --- | --- |
| Cc1c(-c2nc3ccc(CC(F)(F)F)cn3n2)[nH]c2ccccc2c1=O [Compound 20] | 78.5% | 102.86% | 125 | 176 | negative | [x]1.41 | 2.17 |
| Cc1c(-c2nc3cc(C(F)(F)F)c(-c4ccccc4)cn3n2)[nH]c2ccccc2c1=O [Compound 21] | 81.6% | 103.4% | 50 | 50 | negative | [x]0 | 11.4 |
| Cc1c(-c2cn3cc(-c4cccc(OC(F)(F)F)c4)ccc3n2)[nH]c2ccccc2c1=O [Compound 23] | 97.51% | 110.11% | 200 | 200 | negative | – | > 100 |
| Cc1c(-c2nc3ccc(-c4nc(C(F)(F)F)no4)cn3n2)[nH]c2ccccc2c1=O [Compound 24] | 99.13% | 113.29% | 20 | 20 | negative | [x]0 | 2.95 |
| CNC(=O)c1c(-c2nc3ccc(-c4nc(C(F)(F)F)cs4)cn3n2)[nH]c2ccccc2c1=O [Compound 27] | 111.36% | 117.59% | 100 | 100 | negative | [x]0 | > 50 |
| Cc1c(-c2nc3cc(-c4cccc(OC(F)(F)F)c4)ccn3n2)[nH]c2ccccc2c1=O [Compound 28] | 123.3% | 117.7% | 58.7 | 100 | negative | [x]1.7 | 10 |
| Cc1c(-c2nc3ccc(OC(F)(F)F)cn3n2)[nH]c2ccccc2c1=O [Compound 30] | 93.8% | 120.2% | 100 | 100 | negative | [x]0 | 2.92 |
| CN(C)C(=O)c1c(-c2nc3ccc(-c4ccc(OC(F)(F)F)cc4)cn3n2)[nH]c2ccccc2c1=O [Compound 31] | 68.97% | 120.39% | 76 | 200 | inconclusive | [x]2.63 | > 50 |
| Cc1c(-c2nc3cc(Br)ccn3n2)[nH]c2ccccc2c1=O [Compound 39] | 110.6% | 133.8% | 100 | 100 | negative | [x]0 | > 100 |
| COc1cc2nc(-c3[nH]c4ccccc4c(=O)c3C)nn2cc1F [Compound 40] | 95.33% | 134.33% | 200 | 200 | negative | [x]0 | > 100 |
| O=c1c(Br)c(-c2nc3ccc(-c4ccc(OC(F)(F)F)cc4)cn3n2)[nH]c2ccccc12 [Compound 41] | 84.09% | 137.15% | 54.7 | 53.9 | negative | [x]0.99 | 33.9 |
| Cc1c(-c2cn3ccc(-c4ccc(OC(F)(F)F)cc4)cc3n2)[nH]c2ccccc2c1=O [Compound 42] | 80.1% | 137.9% | 200 | 200 | negative | – | 30.7 |
| COc1ccc2[nH]c(-c3nc4ccc(-c5ccc(OC(F)(F)F)cc5)cn4n3)c(C)c(=O)c2c1 [Compound 43] | 109.2% | 138% | 10.6 | 26.3 | inconclusive | [x]2.48 | > 100 |
| Cc1c(-c2nc3ccc(-c4cnc(C(F)(F)F)s4)cn3n2)[nH]c2ccccc2c1=O [Compound 45] | 94.41% | 138.84% | 20 | 20 | negative | [x]0 | 5.96 |
| Cc1c(-c2nc3cc(C(F)(F)F)c(Br)cn3n2)[nH]c2ccccc2c1=O [Compound 46] | 91.4% | 140.4% | 100 | 100 | negative | [x]0 | > 50 |
| Cc1c(-c2nc3ccc(Br)cn3n2)[nH]c2c(F)cc(F)cc2c1=O [Compound 57] | 102% | 149.2% | 100 | 100 | negative | [x]0 | > 50 |
| Cc1c(-c2nc3ccc(-c4c[nH]nn4)cn3n2)[nH]c2ccccc2c1=O [Compound 60] | 114.505% | 155.065% | 100 | 100 | negative | [x]0 | > 50 |
| O=c1cc(-c2nc3ccc(-c4ccc(OC(F)(F)F)cc4)cn3n2)[nH]c2ccccc12 [Compound 65] | 99.86% | 158.97% | 20 | 20 | negative | [x]0 | > 10 |
| Cc1c(Cc2nc3ccc(-c4ccc(OC(F)(F)F)cc4)cn3n2)[nH]c2ccccc2c1=O [Compound 67] | 99.28% | 161.97% | 0.39 | 30 | positive | [x]76.87 | 10.3 |
| COc1ccc2[nH]c(-c3nc4ccc(Br)cn4n3)c(C)c(=O)c2c1 [Compound 68] | 129.7% | 164.4% | 100 | 100 | negative | [x]0 | > 100 |
| Cc1c(-c2nc3ccc(-c4ccccc4)cn3n2)[nH]c2ccccc2c1=O [Compound 72] | 99.84% | 169.69% | 100 | 100 | negative | [x]0 | 0.261 |
| COc1cc2[nH]c(-c3nc4ccc(Br)cn4n3)c(C)c(=O)c2cc1OC [Compound 73] | 105.2% | 171.2% | 100 | 100 | negative | [x]0 | > 100 |
| Cc1c(-c2nc3ccc(Cl)cn3n2)[nH]c2ccccc2c1=O [Compound 74] | 86.4% | 173.3% | 121 | 135 | negative | [x]l.ll | > 100 |
| Cc1c(-c2nc3ccc(OCC(F)(F)F)cn3n2)[nH]c2ccccc2c1=O [Compound 77] | 110.77% | 175.26% | 200 | 200 | negative | [x]0 | 1.85 |
| COc1ccc2[nH]c(-c3nc4ccc(-c5ccc(OC(F)(F)F)cc5)cn4n3)c(C)c(=O)c2c1Cl [Compound 80] | 122.15% | 180.98% | 50 | 50 | negative | [x]0 | > 25 |
| Cc1c(-c2nc3ccc(-c4cnn(CC(F)(F)F)c4)cn3n2)[nH]c2ccccc2c1=O [Compound 81] | 98.58% | 182.7% | 200 | 200 | negative | [x]0 | 16.7 |
| Cc1nnc(-c2ccc3nc(-c4[nH]c5ccccc5c(=O)c4C)nn3c2)s1 [Compound 82] | 96.77% | 186.45% | 50 | 50 | negative | [x]0 | > 5 |
| Cc1cc(F)cc(-c2ccc3nc(-c4[nH]c5ccccc5c(=O)c4C)nn3c2)c1 [Compound 86] | 32,57% | 39,44% | 50 | 50 | negative | [x]0 | 1.32 |
| COc1cc(OC)cc(-c2ccc3nc(-c4[nH]c5ccccc5c(=O)c4C)nn3c2)c1 [Compound 87] | 33,23% | 38,98% | 5.16 | 6.2 | inconclusive | [x]1.21 | 0.548 |
